Results from patent US20230080054A1 (ILDONG PHARMACEUTICAL CO., LTD., priority 2021, published 2023).

Target: T1, human ANO6 (Homo sapiens, UniProt Q4KMQ2)
T1 construct: expressed in transfected cells
T1 sequence (Q4KMQ2 1-931 isoform Q4KMQ2-2): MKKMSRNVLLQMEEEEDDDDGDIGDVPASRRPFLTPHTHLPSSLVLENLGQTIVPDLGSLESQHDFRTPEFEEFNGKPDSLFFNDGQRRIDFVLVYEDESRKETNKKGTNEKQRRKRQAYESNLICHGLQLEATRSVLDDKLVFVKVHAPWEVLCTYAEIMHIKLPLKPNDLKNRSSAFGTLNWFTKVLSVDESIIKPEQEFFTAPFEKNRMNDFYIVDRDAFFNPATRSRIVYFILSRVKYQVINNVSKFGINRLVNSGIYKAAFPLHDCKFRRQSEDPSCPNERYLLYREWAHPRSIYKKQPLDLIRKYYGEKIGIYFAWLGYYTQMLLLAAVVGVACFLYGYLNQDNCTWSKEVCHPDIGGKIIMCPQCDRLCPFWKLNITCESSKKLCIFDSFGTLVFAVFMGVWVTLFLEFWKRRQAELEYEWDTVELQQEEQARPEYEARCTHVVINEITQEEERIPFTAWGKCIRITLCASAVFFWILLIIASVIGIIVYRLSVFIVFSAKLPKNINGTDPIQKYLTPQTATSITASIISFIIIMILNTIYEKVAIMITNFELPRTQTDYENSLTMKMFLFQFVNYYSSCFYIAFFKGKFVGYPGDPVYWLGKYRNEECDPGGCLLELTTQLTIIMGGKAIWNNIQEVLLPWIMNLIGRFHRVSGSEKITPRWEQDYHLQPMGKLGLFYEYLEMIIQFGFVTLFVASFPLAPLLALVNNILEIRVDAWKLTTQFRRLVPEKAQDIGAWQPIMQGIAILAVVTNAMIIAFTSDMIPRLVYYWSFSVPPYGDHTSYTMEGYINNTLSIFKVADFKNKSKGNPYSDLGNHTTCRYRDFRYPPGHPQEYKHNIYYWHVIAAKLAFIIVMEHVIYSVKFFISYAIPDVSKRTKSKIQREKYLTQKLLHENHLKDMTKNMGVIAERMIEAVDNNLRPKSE
Assay: YFP quenching assay (ANO6 ion channel activity)
Format: cell-based
Details: 10 μM ionomycin; for inhibition at 1 µM: test compound 1 μM, read-out: Inhibition Level 1 μM; for inhibition at 30 µM: test compound 30 μM, read-out: Inhibition Level 30 μM
Text: Example 3: YFP Quenching Assay
1. Materials and Instruments
Ionomycin (Alomonelab cat. #I-700), FLUOstar Omega microplate reader (BMG Labtech, Ortenberg, Germany), and MARS Data Analysis Software (BMG Labtech)
Fisher rat thyroid (FRT) cells stably expressing human ANO6 (GenBank accession no. NP_001191732.1, provided by J. H. Nam, Dongguk University College of Medicine, Korea) and halide sensor mutant YFP-H148Q/I152L/F46L) were constructed and grown in Dulbecco's modified Eagle's medium Nutrient Mixture F-12 (DMEM/F-12) supplemented 10% FBS, 100 units/mL penicillin, 500 μg/mL hygromycin B and 100 μg/mL neomycin.
Fisher rat thyroid (FRT) cells stably expressing human ANO6 and halide sensor mutant YFP (H148Q/I152L/F46L) were seeded in black walled 96 well plates and incubated in a 37° C., 5% CO2 incubator to reach about 100% cell confluency. Then, each well of the 96 well plates were washed for several times with phosphate buffered saline (PBS), and 50 μL of PBS was added to each well. Test compounds (100× in DMSO) were added to each well to be 1% v/v DMSO. After incubation for 10 minutes in 40° C., the 96 well plates were transferred to a plate reader, and YFP fluorescence changed by SCN-introduced into cells through activated ANO6 were measured by the following steps.
(1) YFP fluorescence signals were recorded in every 0.4 seconds.
(2) Basal YFP fluorescence signals were recorded for 1 second.
(3) 140 mM SCN-(50 μL) containing 10 μM ionomycin was injected to each well, and YFP fluorescence signals were recorded.
The inhibitory activity (%) of each of the test compounds was obtained by the following steps.
(1) Background signals were subtracted from recording values, and the resulting values were converted to relative percentages. The values at 0 second were set to be 100%.
(2) Differences between the values at 3.6 seconds and those of at 7.6 seconds were calculated.
(3) In each row of 96 well plate, the inhibitory activity of each of the test compounds was calculated as percentages. The inhibitory activity of a negative control group to which neither compounds nor ionomycin were treated was set to be 100%, and the inhibitory activity of a positive control group to which ionomycin was treated and compounds were not treated was set to be 0%.
(4) The assay was performed in duplicate or triplicate, and the results were averaged.

Row | Structure (SMILES) | inhibition at 1 µM [%] | inhibition at 30 µM [%]
1 | Cc1ccc(CNC(=O)c2cccc(Nc3ncc(-c4cccc(C(F)(F)F)c4)cn3)c2)o1 [Compound 99, N-[(5-methylfuran-2-yl)methyl]-3-({5-[3-(trifluoromethyl)phenyl]pyrimidin-2-yl}amino)benzamide] | 30 to 60 | –
2 | Cc1ccc(CNC(=O)c2cccc(Nc3ccc(C(C)C)nn3)c2)o1 [Compound 85, N-[(5-methylfuran-2-yl)methyl]-3-{[6-(propan-2-yl)pyridazin-3-yl]amino}benzamide] | 30 to 60 | –
3 | O=C(NCCc1ccc2c(c1)OCO2)c1cccc(Nc2ncc(-c3ccccc3)cn2)c1 [Compound 106, N-[2-(2H-1,3-benzodioxol-5-yl)ethyl]-3-[(5-phenylpyrimidin-2-yl)amino]benzamide] | 30 to 60 | –
4 | Cc1ccc(CNC(=O)c2cccc(Nc3ncc(-c4ccc5c(c4)OCO5)cn3)c2)o1 [Compound 103, 3-{[5-(2H-1,3-benzodioxol-5-yl)pyrimidin-2-yl]amino}-N-[(5-methylfuran-2-yl)methyl]benzamide] | < 30 | –
5 | CCN(CC)CCNC(=O)c1cccc(Nc2ncc(-c3ccccc3)cn2)c1 [Compound 96, N-[2-(diethylamino)ethyl]-3-[(5-phenylpyrimidin-2-yl)amino]benzamide] | < 30 | –
6 | Cc1ccc(CNC(=O)c2cccc(Nc3ccc(-c4ccc(Cl)c(Cl)c4)nn3)c2)o1 [Compound 16, 3-{[6-(3,4-dichlorophenyl)pyridazin-3-yl]amino}-N-[(5-methylfuran-2-yl)methyl]benzamide] | – | < 30
7 | O=C(NCC1COC1)c1cccc(Nc2ccc(-c3ccccc3)nn2)c1 [Compound 35, N-[(oxetan-3-yl)methyl]-3-[(6-phenylpyridazin-3-yl)amino]benzamide] | < 30 | ≥ 60
8 | Cc1ccc(CNC(=O)c2cccc(Nc3cccc(-c4ccccc4)c3)c2)o1 [Compound 88, 3-({[1,1′-biphenyl]-3-yl}amino)-N-[(5-methylfuran-2-yl)methyl]benzamide] | < 30 | –
9 | NC(=O)c1cccc(Nc2ccc(-c3ccccc3)nn2)c1 [Compound 17, 3-[(6-phenylpyridazin-3-yl)amino]benzamide] | – | 30 to 60
10 | CN(C)CCNC(=O)c1cccc(Nc2ncc(-c3ccccc3)cn2)c1 [Compound 95, N-[2-(dimethylamino)ethyl]-3-[(5-phenylpyrimidin-2-yl)amino]benzamide] | < 30 | –
11 | Cc1ccc(CNC(=O)c2cccc(Nc3ccc(C4CCN(C(=O)OC(C)(C)C)CC4)nn3)c2)o1 [Compound 69, tert-butyl 4-{6-[(3-{[(5-methylfuran-2-yl)methyl]carbamoyl}phenyl)amino]pyridazin-3-yl}piperidine-1-carboxylate] | < 30 | –
12 | Cc1ccc(CNC(=O)c2cccc(Nc3ccc(C4CCOC4)nn3)c2)o1 (centres unmarked) [Compound 87, N-[(5-methylfuran-2-yl)methyl]-3-{[6-(oxolan-3-yl)pyridazin-3-yl]amino}benzamide] | < 30 | –
13 | Cc1ccc(CNC(=O)c2cccc(Nc3nnccc3C)c2)o1 [Compound 48, N-[(5-methylfuran-2-yl)methyl]-3-[(4-methylpyridazin-3-yl)amino]benzamide] | < 30 | –
14 | Cc1ccc(CNC(=O)c2cccc(Nc3ncc(-c4cccc(C(=O)O)c4)cn3)c2)o1 [Compound 108, 3-{2-[(3-{[(5-methylfuran-2-yl)methyl]carbamoyl}phenyl)amino]pyrimidin-5-yl}benzoic acid] | < 30 | –
15 | Cc1ccc(CNC(=O)c2cccc(Nc3nccc(-c4ccccc4)n3)c2)o1 [Compound 89, N-[(5-methylfuran-2-yl)methyl]-3-[(4-phenylpyrimidin-2-yl)amino]benzamide] | < 30 | –
16 | Cc1ccc(CNC(=O)c2cccc(Nc3ccc(C4CC4)nn3)c2)o1 [Compound 43, 3-[(6-cyclopropylpyridazin-3-yl)amino]-N-[(5-methylfuran-2-yl)methyl]benzamide] | < 30 | –
17 | O=C(NCc1ccccn1)c1cccc(Nc2ccc(-c3ccccc3)nn2)c1 [Compound 19, 3-[(6-phenylpyridazin-3-yl)amino]-N-[(pyridin-2-yl)methyl]benzamide] | < 30 | ≥ 60
18 | Cc1ccc(CNC(=O)c2cccc(Nc3ncc(-c4ccc(C(F)(F)F)cc4)cn3)c2)o1 [Compound 100, N-[(5-methylfuran-2-yl)methyl]-3-({5-[4-(trifluoromethyl)phenyl]pyrimidin-2-yl}amino)benzamide] | < 30 | –
19 | Cc1ccc(Nc2cccc(C(=O)NCc3ccc(C)o3)c2)nn1 [Compound 47, N-[(5-methylfuran-2-yl)methyl]-3-[(6-methylpyridazin-3-yl)amino]benzamide] | < 30 | –
20 | O=C(NCCCN1CCCC1)c1cccc(Nc2ccc(-c3ccccc3)nn2)c1 [Compound 21, 3-[(6-phenylpyridazin-3-yl)amino]-N-[3-(pyrrolidin-1-yl)propyl]benzamide] | < 30 | < 30
21 | Cc1ccc(CNC(=O)c2cccc(Nc3ccc(CC(C)C)nn3)c2)o1 [Compound 61, N-[(5-methylfuran-2-yl)methyl]-3-{[6-(2-methylpropyl)pyridazin-3-yl]amino}benzamide] | < 30 | –
22 | Cc1ccc(CNC(=O)c2cccc(Nc3ccc(-c4ccncc4)nn3)c2)o1 [Compound 9, N-[(5-methylfuran-2-yl)methyl]-3-{[6-(pyridin-4-yl)pyridazin-3-yl]amino}benzamide] | < 30 | ≥ 60
23 | Cc1ccc(CNC(=O)c2cccc(Nc3ccc(C4CCCO4)nn3)c2)o1 (centres unmarked) [Compound 86, N-[(5-methylfuran-2-yl)methyl]-3-{[6-(oxolan-2-yl)pyridazin-3-yl]amino}benzamide] | < 30 | –

Further lines, results first:

Row | inhibition at 1 µM [%] | inhibition at 30 µM [%] | Structure (SMILES)
24 | 30 to 60 | ≥ 60 | Cc1ccc(-c2ccc(Nc3cccc(C(=O)NC(C)C)c3)nn2)cc1 [Compound A31]
25 | – | 30 to 60 | COc1ccccc1NC(=O)c1cccc(Nc2ccc(-c3ccccc3)nn2)c1 [Compound A71]
26 | < 30 | – | O=C(NCCN1CCCCC1)c1cccc(Nc2ccc(-c3ccccc3)nn2)c1 [Compound A90]
27 | 30 to 60 | 30 to 60 | Cc1cccc(-c2cnc(Nc3cccc(C(=O)NCc4ccc(C)o4)c3)nc2)c1 [Compound A18]
28 | 30 to 60 | ≥ 60 | Cc1ccc(-c2ccc(Nc3cccc(C(=O)NCC(C)C)c3)nn2)cc1 [Compound A33]
29 | < 30 | 30 to 60 | Cc1ccc(CNC(=O)c2cccc(Nc3ncc(-c4cccc(F)c4)cn3)c2)o1 [Compound A20]
30 | 30 to 60 | ≥ 60 | O=C(NCc1ccc2c(c1)OCO2)c1cccc(Nc2ccc(-c3ccc(F)cc3)nn2)c1 [Compound A17]
31 | 30 to 60 | ≥ 60 | O=C(NC1CCCc2ccccc21)c1cccc(Nc2ccc(-c3ccccc3)nn2)c1 (centres unmarked) [Compound A56]
32 | 30 to 60 | ≥ 60 | COCCCNC(=O)c1cccc(Nc2ccc(-c3ccccc3)nn2)c1 [Compound A69]
33 | 30 to 60 | – | O=C(NC1CCCc2ccccc21)c1cccc(Nc2ncc(-c3cccc(F)c3)cn2)c1 (centres unmarked) [Compound A82]
